# Source: patent US20250312394A1, “Lacticaseibacillus Rhamnosus DY801 and Application Thereof” (priority 2024, published 2025)
# Where a name gives a salt, the structure may show the parent alone. Read-outs that look alike come from different tables or passages of the source.
# Assays:
# [1] = tested on: Lacticaseibacillus rhamnosus DY801; settings: bacterial resistance criteria of the General Standard of Probiotics for Food Use; cited from earlier work
# [2] = tested on: Lacticaseibacillus rhamnosus DY801; test: Antibiotic sensitivity by broth trace-dilution method (MIC); type: cell-based; settings: for Determination of the reading: sensitivity of DY801 to the antibiotic according to the General Standard; for MIC: Lacticaseibacillus rhamnosus, read-out: Detected MIC
# Method: In the present example, the sensitivity of Lacticaseibacillus rhamnosus DY801 against eight antibiotics was tested using the broth trace-dilution method according to “the General Standard of Probiotics for Food Use” (hereinafter referred as General Standard) published by the Chinese Institute of Food Science and Technology. The eight antibiotics were: tetracycline, streptomycin, ciprofloxacin hydrochloride, clindamycin, vancomycin, chloramphenicol, ampicillin and gentamicin. […] The minimum inhibitory concentration (hereinafter referred as MIC) of Lacticaseibacillus rhamnosus DY801 for each antibiotic was read after 48 hours. The strain thereof was determined to be sensitive(S), intermediate (I), resistant (R) and not required (n.r.) for the antibiotic according to the bacterial resistance criteria provided in the General Standard, and the results are shown in Table 2.
# [3] = DY801 suspension 1×10^8 CFU/mL, anaerobic 37° C., read after 48 hours
Compound,MIC in the General Standard [1],"Detected MIC [2, 3]",Determination of the reading [2],"MIC [2, 3]","MIC ([2]; DY801, 48 h)"
"O=C(N[C@H](CO)[C@H](O)c1ccc([N+](=O)[O-])cc1)C(Cl)Cl [chloromycetin, chloramphenicol]",4 µg/mL,2 µg/mL,S,–,–
CN(C)[C@@H]1C(O)=C(C(N)=O)C(=O)[C@@]2(O)C(O)=C3C(=O)c4c(O)cccc4[C@@](C)(O)[C@H]3C[C@@H]12 [tetracycline],–,–,S,8 µg/mL,–
[H]/N=C(/N)N[C@H]1[C@H](O)[C@@H](O)[C@H](O[C@@H]2O[C@@H](C)[C@](O)(C=O)[C@H]2O[C@@H]2O[C@@H](CO)[C@H](O)[C@@H](O)[C@@H]2NC)[C@@H](N/C(N)=N\[H])[C@@H]1O [streptomycin],32 µg/mL,–,S,32 µg/mL,–
O=C(O)c1cn(C2CC2)c2cc(N3CCNCC3)c(F)cc2c1=O [ciprofloxacin hydrochloride],–,–,–,64 µg/mL,–
CN[C@H](CC(C)C)C(=O)N[C@H]1C(=O)N[C@@H](CC(N)=O)C(=O)N[C@H]2C(=O)N[C@H]3C(=O)N[C@H](C(=O)N[C@H](C(=O)O)c4cc(O)cc(O)c4-c4cc3ccc4O)[C@H](O)c3ccc(c(Cl)c3)Oc3cc2cc(c3O[C@@H]2O[C@H](CO)[C@@H](O)[C@H](O)[C@H]2O[C@H]2C[C@](C)(N)[C@H](O)[C@H](C)O2)Oc2ccc(cc2Cl)[C@H]1O [vancomycin],–,–,–,–,64 µg/mL
CCC[C@@H]1C[C@@H](C(=O)N[C@@H]([C@H]2O[C@H](SC)[C@H](O)[C@@H](O)[C@H]2O)[C@H](C)Cl)N(C)C1 [clindamycin],–,4 µg/mL,S,4 µg/mL,–
CC1(C)S[C@@H]2[C@H](NC(=O)[C@H](N)c3ccccc3)C(=O)N2[C@H]1C(=O)O [ampicillin],4 µg/mL,–,S,4 µg/mL,–
gentamicin [gentamycin],16 µg/mL,16 µg/mL,S,–,–
